According to ChEMBL document CHEMBL1123223, “New effective gonadotropin releasing hormone antagonists with minimal potency for histamine release in vitro” (J Med Chem, 1986):
Values after ≈ are worked out from the molar mass of the structure shown.

Assays:
[1] = species: Rattus norvegicus; assay: Compound was tested in vitro for its ability to inhibit histamine release from rat mast cells.; assay type: functional; conditions: read-out: ED50 (the source's name)
[2] = species: Rattus norvegicus; assay: GnRH antagonistic dose of compound for 2 rats ovulation out of total 10 using anti-ovulatory assay in experiment 1; assay type: functional
[3] = species: Rattus norvegicus; assay: Dissociation constant was determined in rat pituitary cells.; assay type: cell-based; conditions: pituitary gland cell
[4] = biological target: T1, Gonadotropin-releasing hormone receptor (Rattus norvegicus) (UniProt P30969); assay: Inhibition of GnRH-mediated LH secretion by cultured pituitary cells; assay type: functional, cell-based; conditions: Pituitary gland cell
T1 sequence (whole entry): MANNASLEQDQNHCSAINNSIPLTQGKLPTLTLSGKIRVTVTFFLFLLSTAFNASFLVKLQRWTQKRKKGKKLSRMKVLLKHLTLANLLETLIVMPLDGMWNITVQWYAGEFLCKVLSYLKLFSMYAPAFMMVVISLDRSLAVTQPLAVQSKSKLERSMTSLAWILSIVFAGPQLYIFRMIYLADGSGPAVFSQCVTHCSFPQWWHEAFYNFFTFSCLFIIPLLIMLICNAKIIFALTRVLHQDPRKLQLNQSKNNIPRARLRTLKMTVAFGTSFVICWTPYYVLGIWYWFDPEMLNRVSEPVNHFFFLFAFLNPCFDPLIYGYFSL

[5] = species: Rattus norvegicus; assay: GnRH antagonistic dose of compound for 0 rats ovulation out of total 6 using anti-ovulatory assay in experiment 2; assay type: functional

- EC50 [1]: 2.1 µg/mL (≈ 1.44 µM)
- Relative potency [4]: 0.44
Compound: CC(=O)N[C@H](Cc1ccc2ccccc2c1)C(=O)N[C@H](Cc1ccc(Cl)cc1)C(=O)N[C@H](Cc1cccnc1)C(=O)N[C@@H](CO)C(=O)N[C@@H](CCCN=C(N)N)C(=O)N[C@H](Cc1c[nH]c2ccccc12)C(=O)N[C@@H](CC(C)C)C(=O)N[C@@H](CCCN=C(N)N)C(=O)N1CCC[C@H]1C(=O)N[C@H](C)C(=O)O
- ED100 [2]: 0.5 µg/kg
- Kd [3]: 0.96 nM
- ED100 [5]: 1 µg/kg
